# Target: T1, Ephrin type-B receptor 4 (Homo sapiens, UniProt P54760)
# T1 sequence (P54760 whole entry): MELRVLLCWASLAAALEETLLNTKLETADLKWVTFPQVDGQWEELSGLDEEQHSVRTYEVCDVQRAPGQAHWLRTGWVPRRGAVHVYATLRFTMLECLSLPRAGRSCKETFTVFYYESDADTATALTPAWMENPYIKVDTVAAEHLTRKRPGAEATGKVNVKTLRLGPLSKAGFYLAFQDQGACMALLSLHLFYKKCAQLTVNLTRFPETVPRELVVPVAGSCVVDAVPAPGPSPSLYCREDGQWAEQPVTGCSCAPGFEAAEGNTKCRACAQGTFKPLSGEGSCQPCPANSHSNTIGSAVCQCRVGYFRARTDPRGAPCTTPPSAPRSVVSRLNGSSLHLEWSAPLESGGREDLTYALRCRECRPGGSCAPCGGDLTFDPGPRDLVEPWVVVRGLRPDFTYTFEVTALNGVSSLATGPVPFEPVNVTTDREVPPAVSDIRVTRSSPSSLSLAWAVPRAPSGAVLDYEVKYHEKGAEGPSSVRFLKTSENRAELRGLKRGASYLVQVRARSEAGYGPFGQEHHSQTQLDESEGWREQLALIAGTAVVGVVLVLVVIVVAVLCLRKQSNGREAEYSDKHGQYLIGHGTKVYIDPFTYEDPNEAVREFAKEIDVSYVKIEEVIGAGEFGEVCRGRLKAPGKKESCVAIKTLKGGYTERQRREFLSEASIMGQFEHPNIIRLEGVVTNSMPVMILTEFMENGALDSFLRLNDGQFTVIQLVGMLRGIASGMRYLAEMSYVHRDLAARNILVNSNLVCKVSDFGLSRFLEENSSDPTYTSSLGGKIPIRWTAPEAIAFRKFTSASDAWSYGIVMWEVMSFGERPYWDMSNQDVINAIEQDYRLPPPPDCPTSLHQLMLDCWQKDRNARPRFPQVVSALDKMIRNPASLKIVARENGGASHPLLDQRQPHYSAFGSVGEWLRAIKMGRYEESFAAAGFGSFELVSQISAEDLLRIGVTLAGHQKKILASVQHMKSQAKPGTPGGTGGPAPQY
# Assay: blockers of EphB4 ligand binding – biochemical, TNYL-RAW peptide displacement, dose response (AID 835)
# Conditions: not given
row,SMILES,IC50 [µM]
1,"Cc1onc(-c2ccccc2)c1C(=O)Nc1ccc(S(=O)(=O)NC2=NCCCCC2)cc1 [5-methyl-3-phenyl-N-[4-(3,4,5,6-tetrahydro-2H-azepin-7-ylsulfamoyl)phenyl]-1,2-oxazole-4-carboxamide]",> 79.4
2,"CC1CCN(S(=O)(=O)c2cc(Br)cc(C(=O)NC3=NCCS3)c2)CC1 [3-bromanyl-N-(4,5-dihydro-1,3-thiazol-2-yl)-5-(4-methylpiperidin-1-yl)sulfonyl-benzamide]",> 79.4
3,CCOC(=O)C1=C(c2ccccc2)N2C=CS(=O)(=O)NC2S1 (stereo unspecified) [MLS000048572],> 79.4
4,"O=C(c1ccc(COc2ccccc2Cl)o1)N1CCN(Cc2ccc3c(c2)OCO3)CC1 [1-(1,3-benzodioxol-5-ylmethyl)-4-{5-[(2-chlorophenoxy)methyl]-2-furoyl}piperazine]",> 79.4
5,CCOc1cccc(-n2c(O)cc(=O)[nH]c2=O)c1,> 79.4
6,CCOc1cc(N2CCOCC2)c(OCC)cc1NC(=O)COc1cccc2cccnc12 [MLS000060380],> 79.4
7,"COC(=O)c1ccc(COc2ccc3c(C)c(C)c(=O)oc3c2C)o1 [5-[(2-keto-3,4,8-trimethyl-chromen-7-yl)oxymethyl]furan-2-carboxylic acid methyl ester]",> 79.4
8,"COC(=O)CSC1=NC2=C(C(=O)CCC2)C(c2ccc(C)cc2)C1C#N (stereo unspecified) [methyl 2-[[3-cyano-4-(4-methylphenyl)-5-oxo-4,6,7,8-tetrahydro-1H-quinolin-2-yl]sulfanyl]acetate]",> 79.4
9,Oc1c(CN2CCCCC2)cc(COCc2ccccc2)c2cccnc12 [5-(benzoxymethyl)-7-(piperidinomethyl)quinolin-8-ol],> 79.4
10,O=C1c2ccccc2-c2onc3ccc(NCCCn4ccnc4)c1c23 [SMR000044769],0.8
11,Fc1ccc(Sc2cc(Cl)c(-c3ccccc3)nn2)cc1 [4-chloranyl-6-(4-fluorophenyl)sulfanyl-3-phenyl-pyridazine],> 79.4
12,"CCCOC(=O)C(C)n1cnc2sc(C)c(C)c2c1=O (stereo unspecified) [2-(4-keto-5,6-dimethyl-thieno[2,3-d]pyrimidin-3-yl)propionic acid propyl ester]",> 79.4
13,"CSc1cccc(-n2c(C)cc(C(N)=O)c2C)c1 [2,5-dimethyl-1-(3-methylsulfanylphenyl)pyrrole-3-carboxamide]",> 79.4
14,CN(c1ccc(Cl)cc1)c1cc(=O)n(C)c2ccccc12 [4-(4-chloro-N-methyl-anilino)-1-methyl-carbostyril],> 79.4
15,"CCOC(=O)c1sc2nc(C)c3c(c2c1N)CC(C)(C)OC3 [1-Amino-5,8,8-trimethyl-8,9-dihydro-6H-7-oxa-3-thia-4-aza-cyclopenta[a]naphthalene-2-carboxylic acid ethyl ester]",> 79.4
16,COc1ccc2[nH]c(=O)c(CN(Cc3ccccc3)Cc3nnnn3CC3CCCO3)cc2c1 (stereo unspecified) [3-({Benzyl-[1-(tetrahydro-furan-2-ylmethyl)-1H-tetrazol-5-ylmethyl]-amino}-methyl)-6-methoxy-1H-quinolin-2-one],> 79.4
17,COCc1nnc(NC(=O)CC(c2ccccc2)c2ccccc2)s1 [MLS000528014],> 79.4
18,"Cc1cc(OC(=O)c2ccco2)c2c3c(c(=O)oc2c1)CCCC3 [(3-methyl-6-oxidanylidene-7,8,9,10-tetrahydrobenzo[c]chromen-1-yl) furan-2-carboxylate]",> 79.4
19,O=C(Nc1ccccc1C(=O)N1CCOCC1)c1ccncc1 [MLS000109827],> 79.4
20,O=C(NC(Cc1ccccc1)c1nc2ccccc2[nH]1)C1CC(=O)N(c2ccc3c(c2)OCCO3)C1 (stereo unspecified) [MLS000053466],> 79.4
21,O=[N+]([O-])/C=C/c1cn(Cc2ccc(F)cc2)c2ccccc12 [MLS000577100],> 79.4
22,COc1ccc(C(C)NC(=O)c2ccccc2)cc1 (stereo unspecified) [MLS000525960],> 79.4
23,O=C(NN=C1C(=O)c2cccc3cccc1c23)c1ccc(Cl)cc1 [4-chloranyl-N-[(2-oxidanylideneacenaphthylen-1-ylidene)amino]benzamide],17.8
24,CC(C)CC(=O)NC(=S)NCCc1ccccc1 [3-methyl-N-(2-phenylethylcarbamothioyl)butanamide],> 79.4
25,"Cc1c2cc(O)c(=O)cc-2oc2cc(O)c(O)cc12 [2,6,7-Trihydroxy-9-methyl-xanthen-3-one]",3.6

row,SMILES,IC50 [µM]
1,O=S(=O)(N1CCOCC1)N1CCN(c2ccccc2F)CC1 [4-[4-(2-fluorophenyl)piperazin-1-yl]sulfonylmorpholine],> 79.4
2,CCOC(=O)C1CCN(S(=O)(=O)Cc2ccccc2)C1=O (stereo unspecified) [1-benzylsulfonyl-2-keto-pyrrolidine-3-carboxylic acid ethyl ester],> 79.4
3,"Cn1c(=O)c(NCCc2ccccc2)c2c3c(cccc31)C(=O)c1ccccc1-2 [3-Methyl-1-phenethylamino-3H-naphtho[1,2,3-de]quinoline-2,7-dione]",1
4,O=C(CN(Cc1cccs1)C(=O)CSc1nnc(COc2ccccc2)o1)NC1CCCC1 [MLS000077370],> 79.4
5,O=C(N/N=C/c1ccncc1)c1cc([N+](=O)[O-])cc([N+](=O)[O-])c1O [MLS000541056],> 79.4
6,"Cc1ccc(-c2nc3cccnc3o2)cc1NC(=O)COc1ccc(C(C)(C)C)cc1 [2-(4-tert-butylphenoxy)-N-(2-methyl-5-[1,3]oxazolo[5,4-b]pyridin-2-ylphenyl)acetamide]",> 79.4
7,CN(C)c1nccc(Nc2ccccc2)c1C#N [2-(dimethylamino)-4-phenylazanyl-pyridine-3-carbonitrile],> 79.4
8,"COCCn1c(C)cc(C(=O)COc2nc3ccccc3nc2C)c1C [1-[1-(2-methoxyethyl)-2,5-dimethyl-3-pyrrolyl]-2-[(3-methyl-2-quinoxalinyl)oxy]ethanone]",> 79.4
9,"CC(c1ccccc1)C1CC(=O)N(C2CCCCC2)C1=O (stereo unspecified) [1-cyclohexyl-3-(1-phenylethyl)-2,5-pyrrolidinedione]",> 79.4
10,CCn1c(CSc2nnc(-c3cccnc3)n2-c2ccccc2C)nc2cc(C(=O)O)ccc21 [SMR000067019],11.1
11,"Cc1c(NC(=O)COC(=O)C(c2ccc(Cl)cc2)C(C)C)c(=O)n(-c2ccccc2)n1C (stereo unspecified) [2-(4-chlorophenyl)-3-methyl-butyric acid [2-keto-2-[(3-keto-1,5-dimethyl-2-phenyl-3-pyrazolin-4-yl)amino]ethyl] ester]",> 79.4
12,COc1ccc(Cn2nnnc2C(c2cc3ccc(OC)cc3nc2O)N2CCC(C)CC2)cc1 (stereo unspecified) [MLS000523343],> 79.4
13,"CN1C(=O)S/C(=C/c2cccnc2)C1=O [(5E)-3-methyl-5-(3-pyridinylmethylidene)thiazolidine-2,4-dione]",> 79.4
14,CCC(C)(C)NC(=O)C(c1ccco1)N(C(=O)c1csnn1)c1cccc(F)c1 (stereo unspecified) [MLS000074093],> 79.4
15,"Cc1ccc(Cn2c(SCCN3CCCCC3)nc3c2c(=O)n(C)c(=O)n3C)cc1 [1,3-Dimethyl-7-(4-methyl-benzyl)-8-(2-piperidin-1-yl-ethylsulfanyl)-3,7-dihydro-purine-2,6-dione]",> 79.4
16,CCC1CCCCN1C(=O)Nc1cccc(NC(=O)N2CCCCC2CC)c1 (stereo unspecified) [2-ethyl-N-[3-[(2-ethylpiperidin-1-yl)carbonylamino]phenyl]piperidine-1-carboxamide],> 79.4
17,CCCCCCOC(=O)C(C#N)c1nc2ccccc2nc1N1CCN(C)CC1 (stereo unspecified) [2-cyano-2-[3-(4-methyl-1-piperazinyl)-2-quinoxalinyl]acetic acid hexyl ester],> 79.4
18,"C=CCn1c(C#N)c(N)sc1=N [3-Allyl-5-amino-2-imino-2,3-dihydro-thiazole-4-carbonitrile]",> 79.4
19,"c1coc(-c2nc(-c3ccco3)c(-c3ccco3)nc2-c2ccco2)c1 [2,3,5,6-tetrakis(2-furanyl)pyrazine]",> 79.4
20,O=C1Nc2ccccc2/C1=N/Nc1nc2ccccc2s1 [SMR000123161],> 79.4
21,CC(=O)Nc1cccc(NC(=O)CSc2nnc(Cc3cccn3C)n2-c2ccc(C)cc2)c1 [MLS000092946],> 79.4
22,COCCCNc1c(O)nc2cccc3c2c1-c1ccccc1C3=O [SMR000017250],5.3
23,"CCCc1nnc(NC(=O)CNc2ccc(F)cc2)s1 [2-(4-fluoroanilino)-N-(5-propyl-1,3,4-thiadiazol-2-yl)acetamide]",> 79.4
24,"O=C1CN(C(=O)CN2CCCCC2)C(c2ccccc2)c2cc(Br)ccc2N1 (stereo unspecified) [7-bromanyl-5-phenyl-4-(2-piperidin-1-ylethanoyl)-3,5-dihydro-1H-1,4-benzodiazepin-2-one]",> 79.4

# Same assay, conditions: inactive by the depositor's call
row,SMILES,IC50 [µM]
1,"CCn1c(CSc2nnc3ccccn23)nc2cc(C(=O)O)ccc21 [1-ethyl-2-[([1,2,4]triazolo[4,3-a]pyridin-3-ylthio)methyl]-5-benzimidazolecarboxylic acid]",20.4
2,"CCNc1c2c3c(cccc3n(C)c1=O)C(=O)c1ccccc1-2 [1-(ethylamino)-3-methyl-3H-naphtho[1,2,3-de]quinoline-2,7-dione]",25.7
